Laboratory results: PMC9825645 (Traffic (Copenhagen, Denmark), 2022)

Target: T1, AMPH-1 (Amphiphysin 1) (Caenorhabditis elegans, UniProt Q21004)
T1 sequence (Q21004 1-461): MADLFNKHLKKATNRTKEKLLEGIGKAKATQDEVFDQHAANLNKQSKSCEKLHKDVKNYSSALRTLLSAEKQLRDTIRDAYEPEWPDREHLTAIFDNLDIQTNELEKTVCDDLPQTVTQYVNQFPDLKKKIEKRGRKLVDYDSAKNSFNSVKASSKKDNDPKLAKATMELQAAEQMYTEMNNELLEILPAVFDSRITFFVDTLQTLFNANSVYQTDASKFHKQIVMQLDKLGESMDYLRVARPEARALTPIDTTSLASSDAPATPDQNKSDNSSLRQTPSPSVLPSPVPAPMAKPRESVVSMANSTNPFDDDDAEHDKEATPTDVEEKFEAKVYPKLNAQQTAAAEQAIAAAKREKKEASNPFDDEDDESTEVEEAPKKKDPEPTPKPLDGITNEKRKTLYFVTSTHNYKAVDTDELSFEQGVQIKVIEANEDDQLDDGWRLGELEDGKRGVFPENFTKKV
Experiment: membrane fission of PS liposomes by burst analysis spectroscopy
Format: biochemical
Settings: 0.5 mM GDP, 1 μM AMPH-1, 30 min; stimulates fission

Nc1nc2c(ncn2[C@@H]2O[C@H](COP(=O)(O)OP(=O)(O)O)[C@@H](O)[C@H]2O)c(=O)[nH]1 [GDP]
membrane fission of PS liposomes by burst analysis spectroscopy: GDP stimulates fission to almost the same extent as seen in the presence of GTP
